Laboratory results reported in ChEMBL document CHEMBL4028801, “A multifactorial approach to hepatobiliary transporter assessment enables improved therapeutic compound development” (Toxicol Sci, 2013).
Values belong to the compound of their own block, whether it stands above or below them.

Assays:
[1] = molecular target: Bile salt export pump (Homo sapiens, UniProt O95342); assay: Inhibition of human BSEP overexpressed in Sf9 cell membrane vesicles assessed as uptake of [3H]-taurocholate in presence of ATP measured after 15 to 20 mins by membrane vesicle transport assay; assay type: ADME, cell-based
[2] = molecular target: ATP-binding cassette sub-family C member 3 (Homo sapiens, UniProt O15438); assay: Inhibition of human MRP3 overexpressed in Sf9 insect cell membrane vesicles assessed as uptake of [3H]-estradiol-17beta-D-glucuronide in presence of ATP and GSH measured after 10 mins by membrane vesicle transport assay; assay type: ADME, cell-based
[3] = molecular target: T1, ATP-binding cassette sub-family C member 4 (Homo sapiens, UniProt O15439); assay: Inhibition of human MRP4 overexpressed in Sf9 cell membrane vesicles assessed as uptake of [3H]-estradiol-17beta-D-glucuronide in presence of ATP and GSH measured after 20 mins by membrane vesicle transport assay; assay type: ADME, cell-based
T1 sequence (O15439 whole entry): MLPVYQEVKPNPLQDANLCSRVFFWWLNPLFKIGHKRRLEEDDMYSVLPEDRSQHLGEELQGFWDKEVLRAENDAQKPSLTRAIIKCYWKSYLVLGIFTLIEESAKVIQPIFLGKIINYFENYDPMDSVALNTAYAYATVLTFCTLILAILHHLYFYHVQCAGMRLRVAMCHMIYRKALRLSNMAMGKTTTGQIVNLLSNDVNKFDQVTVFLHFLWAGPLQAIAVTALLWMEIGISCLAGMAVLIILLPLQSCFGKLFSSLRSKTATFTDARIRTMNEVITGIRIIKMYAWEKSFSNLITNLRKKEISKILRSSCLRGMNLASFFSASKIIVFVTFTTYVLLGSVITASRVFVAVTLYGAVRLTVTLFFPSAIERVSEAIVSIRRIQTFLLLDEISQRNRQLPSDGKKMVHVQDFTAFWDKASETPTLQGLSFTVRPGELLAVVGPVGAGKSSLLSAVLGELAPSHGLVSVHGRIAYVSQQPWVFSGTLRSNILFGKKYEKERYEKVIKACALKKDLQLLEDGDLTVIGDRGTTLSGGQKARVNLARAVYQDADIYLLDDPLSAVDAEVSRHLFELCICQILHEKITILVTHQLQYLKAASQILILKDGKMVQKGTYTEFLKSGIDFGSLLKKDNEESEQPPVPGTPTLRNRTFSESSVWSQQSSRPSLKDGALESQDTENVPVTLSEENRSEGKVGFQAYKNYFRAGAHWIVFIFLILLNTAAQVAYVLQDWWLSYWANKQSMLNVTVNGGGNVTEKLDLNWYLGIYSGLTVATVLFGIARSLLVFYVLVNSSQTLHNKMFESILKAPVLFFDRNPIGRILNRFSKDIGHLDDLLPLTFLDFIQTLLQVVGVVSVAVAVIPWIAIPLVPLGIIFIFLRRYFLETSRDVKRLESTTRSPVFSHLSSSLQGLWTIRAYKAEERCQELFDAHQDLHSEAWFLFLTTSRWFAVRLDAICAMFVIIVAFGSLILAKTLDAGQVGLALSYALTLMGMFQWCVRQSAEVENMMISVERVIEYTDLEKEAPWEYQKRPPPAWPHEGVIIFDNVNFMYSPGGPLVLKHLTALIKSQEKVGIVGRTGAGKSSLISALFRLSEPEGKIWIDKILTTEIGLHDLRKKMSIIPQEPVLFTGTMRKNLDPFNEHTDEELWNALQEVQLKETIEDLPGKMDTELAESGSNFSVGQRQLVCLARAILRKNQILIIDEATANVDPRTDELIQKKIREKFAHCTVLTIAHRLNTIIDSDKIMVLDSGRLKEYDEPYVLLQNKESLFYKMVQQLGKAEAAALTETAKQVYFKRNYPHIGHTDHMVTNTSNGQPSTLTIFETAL

[4] = AUC in human at 2 to 8 mg, po QD after 24 hrs; assay type: ADME, organism-based; details: in vivo
[5] = Drug concentration at steady state in human at 2 to 8 mg, po QD after 24 hrs; assay type: ADME, organism-based; details: in vivo, read-out: Css
[6] = Ratio of drug concentration at steady state in human at 2 to 8 mg, po QD after 24 hrs to IC50 for human BSEP overexpressed in Sf9 insect cells; assay type: ADME, organism-based; details: in vivo
[7] = Ratio of drug concentration at steady state in human at 2 to 8 mg, po QD after 24 hrs to IC50 for human MRP4 overexpressed in Sf9 insect cells; assay type: ADME, organism-based; details: in vivo
[8] = molecular target: ATP-binding cassette sub-family C member 2 (Homo sapiens, UniProt Q92887); assay: Inhibition of human MRP2 overexpressed in Sf9 cell membrane vesicles assessed as uptake of [3H]-estradiol-17beta-D-glucuronide in presence of ATP and GSH measured after 20 mins by membrane vesicle transport assay
[9] = AUC in human at 300 to 600 mg, po QD after 24 hrs; assay type: ADME, organism-based; details: in vivo
[10] = Drug concentration at steady state in human at 300 to 600 mg, po QD after 24 hrs; assay type: ADME, organism-based; details: in vivo, read-out: Css
[11] = Ratio of drug concentration at steady state in human at 300 to 600 mg, po QD after 24 hrs to IC50 for human BSEP overexpressed in Sf9 insect cells; assay type: ADME, organism-based; details: in vivo
[12] = Ratio of drug concentration at steady state in human at 300 to 600 mg, po QD after 24 hrs to IC50 for human MRP4 overexpressed in Sf9 insect cells; assay type: ADME, organism-based; details: in vivo
[13] = AUC in human at 300 mg, po QD after 24 hrs; assay type: ADME, organism-based; set-up: time < 24 hr, dose 300 mg, route oral; details: in vivo
[14] = Drug concentration at steady state in human at 300 mg, po QD after 24 hrs; assay type: ADME, organism-based; details: in vivo, read-out: Css
[15] = Ratio of drug concentration at steady state in human at 300 mg, po QD after 24 hrs to IC50 for human BSEP overexpressed in Sf9 insect cells; assay type: ADME, organism-based; details: in vivo
[16] = Ratio of drug concentration at steady state in human at 300 mg, po QD after 24 hrs to IC50 for human MRP4 overexpressed in Sf9 insect cells; assay type: ADME, organism-based; details: in vivo
[17] = AUC in human at 400 to 800 mg, po QD after 24 hrs; assay type: ADME, organism-based; details: in vivo
[18] = Drug concentration at steady state in human at 400 to 800 mg, po QD after 24 hrs; assay type: ADME, organism-based; details: in vivo, read-out: Css
[19] = Ratio of drug concentration at steady state in human at 400 to 800 mg, po QD after 24 hrs to IC50 for human BSEP overexpressed in Sf9 insect cells; assay type: ADME, organism-based; details: in vivo
[20] = AUC in human at 400 to 600 mg, po QD after 24 hrs; assay type: ADME, organism-based; details: in vivo
[21] = Drug concentration at steady state in human at 400 to 600 mg, po QD after 24 hrs; assay type: ADME, organism-based; details: in vivo, read-out: Css
[22] = AUC in human at 150 to 600 mg, iv QD after 24 hrs; assay type: ADME, organism-based; details: in vivo
[23] = Drug concentration at steady state in human at 150 to 600 mg, iv QD after 24 hrs; assay type: ADME, organism-based; details: in vivo, read-out: Css
[24] = Ratio of drug concentration at steady state in human at 150 to 600 mg, iv QD after 24 hrs to IC50 for human BSEP overexpressed in Sf9 insect cells; assay type: ADME, organism-based; details: in vivo
[25] = Ratio of drug concentration at steady state in human at 150 to 600 mg, iv QD after 24 hrs to IC50 for human MRP2 overexpressed in Sf9 insect cells; assay type: ADME, organism-based; details: in vivo
[26] = Ratio of drug concentration at steady state in human at 150 to 600 mg, iv QD after 24 hrs to IC50 for human MRP3 overexpressed in Sf9 insect cells; assay type: ADME, organism-based; details: in vivo
[27] = Ratio of drug concentration at steady state in human at 150 to 600 mg, iv QD after 24 hrs to IC50 for human MRP4 overexpressed in Sf9 insect cells; assay type: ADME, organism-based; details: in vivo

Chain of ATP-binding cassette sub-family C member 3 (O15438 whole entry): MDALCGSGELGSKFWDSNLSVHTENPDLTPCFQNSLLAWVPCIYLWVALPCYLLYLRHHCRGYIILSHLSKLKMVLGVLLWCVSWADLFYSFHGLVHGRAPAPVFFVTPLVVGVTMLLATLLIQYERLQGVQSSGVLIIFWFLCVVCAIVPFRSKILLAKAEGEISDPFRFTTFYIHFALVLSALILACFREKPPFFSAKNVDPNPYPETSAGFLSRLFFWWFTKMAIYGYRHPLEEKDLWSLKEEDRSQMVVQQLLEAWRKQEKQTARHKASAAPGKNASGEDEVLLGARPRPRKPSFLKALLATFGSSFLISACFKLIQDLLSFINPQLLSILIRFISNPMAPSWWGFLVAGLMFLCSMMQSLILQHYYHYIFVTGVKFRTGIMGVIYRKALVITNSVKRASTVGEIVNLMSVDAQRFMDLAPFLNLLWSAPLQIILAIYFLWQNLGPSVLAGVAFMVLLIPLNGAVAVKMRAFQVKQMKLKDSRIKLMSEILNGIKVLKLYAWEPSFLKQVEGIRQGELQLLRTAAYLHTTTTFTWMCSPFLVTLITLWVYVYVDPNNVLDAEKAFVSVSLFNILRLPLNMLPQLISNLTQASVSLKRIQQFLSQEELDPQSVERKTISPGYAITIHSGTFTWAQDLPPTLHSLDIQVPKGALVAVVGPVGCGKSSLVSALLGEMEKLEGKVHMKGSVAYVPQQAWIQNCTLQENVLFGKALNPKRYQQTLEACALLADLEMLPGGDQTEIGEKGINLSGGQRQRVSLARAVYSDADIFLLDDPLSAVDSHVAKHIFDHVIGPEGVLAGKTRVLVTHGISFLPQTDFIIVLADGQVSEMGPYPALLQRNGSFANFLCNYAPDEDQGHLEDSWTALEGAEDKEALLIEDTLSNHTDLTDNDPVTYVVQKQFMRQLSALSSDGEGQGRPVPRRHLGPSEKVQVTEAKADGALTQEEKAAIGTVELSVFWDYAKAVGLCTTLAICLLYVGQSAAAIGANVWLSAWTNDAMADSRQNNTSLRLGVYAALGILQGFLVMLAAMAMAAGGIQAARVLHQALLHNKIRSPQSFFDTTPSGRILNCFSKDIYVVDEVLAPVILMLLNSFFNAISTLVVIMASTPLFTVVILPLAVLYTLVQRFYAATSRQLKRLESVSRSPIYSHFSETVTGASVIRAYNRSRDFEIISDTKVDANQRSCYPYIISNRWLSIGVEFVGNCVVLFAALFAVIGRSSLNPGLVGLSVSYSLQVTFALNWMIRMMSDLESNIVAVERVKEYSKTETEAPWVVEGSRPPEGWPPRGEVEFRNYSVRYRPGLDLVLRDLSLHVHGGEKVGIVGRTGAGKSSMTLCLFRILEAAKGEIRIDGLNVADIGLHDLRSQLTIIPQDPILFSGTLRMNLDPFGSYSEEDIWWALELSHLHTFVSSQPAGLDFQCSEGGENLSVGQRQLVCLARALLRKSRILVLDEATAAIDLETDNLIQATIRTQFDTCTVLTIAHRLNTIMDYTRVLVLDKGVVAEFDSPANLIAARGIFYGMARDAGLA
Chain of ATP-binding cassette sub-family C member 2 (Q92887 whole entry): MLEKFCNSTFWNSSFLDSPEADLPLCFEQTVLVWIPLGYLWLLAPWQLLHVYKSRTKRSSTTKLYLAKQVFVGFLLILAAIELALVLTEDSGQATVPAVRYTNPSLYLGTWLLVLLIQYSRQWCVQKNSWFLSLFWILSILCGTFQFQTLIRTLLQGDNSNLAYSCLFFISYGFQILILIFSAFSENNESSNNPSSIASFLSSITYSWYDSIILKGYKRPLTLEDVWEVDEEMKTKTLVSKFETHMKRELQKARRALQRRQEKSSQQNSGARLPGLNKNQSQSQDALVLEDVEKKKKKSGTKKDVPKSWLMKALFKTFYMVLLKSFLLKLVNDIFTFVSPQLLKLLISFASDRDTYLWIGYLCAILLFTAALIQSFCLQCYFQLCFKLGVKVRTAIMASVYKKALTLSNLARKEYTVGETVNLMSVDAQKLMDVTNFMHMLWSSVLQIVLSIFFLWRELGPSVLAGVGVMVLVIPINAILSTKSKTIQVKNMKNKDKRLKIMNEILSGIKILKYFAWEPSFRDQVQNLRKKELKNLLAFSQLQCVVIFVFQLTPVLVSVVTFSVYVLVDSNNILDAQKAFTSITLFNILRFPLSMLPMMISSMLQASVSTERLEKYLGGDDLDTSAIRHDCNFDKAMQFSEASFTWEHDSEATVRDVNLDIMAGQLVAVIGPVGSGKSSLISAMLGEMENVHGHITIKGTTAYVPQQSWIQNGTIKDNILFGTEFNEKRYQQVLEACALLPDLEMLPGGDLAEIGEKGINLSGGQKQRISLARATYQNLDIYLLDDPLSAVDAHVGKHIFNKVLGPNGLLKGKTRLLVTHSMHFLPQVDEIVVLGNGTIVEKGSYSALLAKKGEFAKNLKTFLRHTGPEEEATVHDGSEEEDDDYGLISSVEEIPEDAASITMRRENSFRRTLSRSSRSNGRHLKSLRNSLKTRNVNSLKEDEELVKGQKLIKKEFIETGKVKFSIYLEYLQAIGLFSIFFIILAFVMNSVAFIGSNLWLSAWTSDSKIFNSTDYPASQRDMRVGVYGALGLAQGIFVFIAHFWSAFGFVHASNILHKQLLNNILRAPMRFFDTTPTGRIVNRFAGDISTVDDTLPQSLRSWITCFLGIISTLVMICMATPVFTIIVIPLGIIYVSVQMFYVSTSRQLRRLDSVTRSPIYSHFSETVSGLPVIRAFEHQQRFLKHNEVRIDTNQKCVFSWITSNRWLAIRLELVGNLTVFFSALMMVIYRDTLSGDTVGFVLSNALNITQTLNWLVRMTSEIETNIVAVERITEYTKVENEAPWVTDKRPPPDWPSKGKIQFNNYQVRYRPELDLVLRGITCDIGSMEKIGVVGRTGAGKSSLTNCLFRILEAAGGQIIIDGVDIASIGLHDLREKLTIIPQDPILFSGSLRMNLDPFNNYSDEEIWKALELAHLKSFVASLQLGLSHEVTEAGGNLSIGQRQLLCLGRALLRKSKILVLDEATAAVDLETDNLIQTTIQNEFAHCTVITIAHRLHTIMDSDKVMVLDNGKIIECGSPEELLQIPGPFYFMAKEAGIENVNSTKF
Chain of Bile salt export pump (O95342 whole entry): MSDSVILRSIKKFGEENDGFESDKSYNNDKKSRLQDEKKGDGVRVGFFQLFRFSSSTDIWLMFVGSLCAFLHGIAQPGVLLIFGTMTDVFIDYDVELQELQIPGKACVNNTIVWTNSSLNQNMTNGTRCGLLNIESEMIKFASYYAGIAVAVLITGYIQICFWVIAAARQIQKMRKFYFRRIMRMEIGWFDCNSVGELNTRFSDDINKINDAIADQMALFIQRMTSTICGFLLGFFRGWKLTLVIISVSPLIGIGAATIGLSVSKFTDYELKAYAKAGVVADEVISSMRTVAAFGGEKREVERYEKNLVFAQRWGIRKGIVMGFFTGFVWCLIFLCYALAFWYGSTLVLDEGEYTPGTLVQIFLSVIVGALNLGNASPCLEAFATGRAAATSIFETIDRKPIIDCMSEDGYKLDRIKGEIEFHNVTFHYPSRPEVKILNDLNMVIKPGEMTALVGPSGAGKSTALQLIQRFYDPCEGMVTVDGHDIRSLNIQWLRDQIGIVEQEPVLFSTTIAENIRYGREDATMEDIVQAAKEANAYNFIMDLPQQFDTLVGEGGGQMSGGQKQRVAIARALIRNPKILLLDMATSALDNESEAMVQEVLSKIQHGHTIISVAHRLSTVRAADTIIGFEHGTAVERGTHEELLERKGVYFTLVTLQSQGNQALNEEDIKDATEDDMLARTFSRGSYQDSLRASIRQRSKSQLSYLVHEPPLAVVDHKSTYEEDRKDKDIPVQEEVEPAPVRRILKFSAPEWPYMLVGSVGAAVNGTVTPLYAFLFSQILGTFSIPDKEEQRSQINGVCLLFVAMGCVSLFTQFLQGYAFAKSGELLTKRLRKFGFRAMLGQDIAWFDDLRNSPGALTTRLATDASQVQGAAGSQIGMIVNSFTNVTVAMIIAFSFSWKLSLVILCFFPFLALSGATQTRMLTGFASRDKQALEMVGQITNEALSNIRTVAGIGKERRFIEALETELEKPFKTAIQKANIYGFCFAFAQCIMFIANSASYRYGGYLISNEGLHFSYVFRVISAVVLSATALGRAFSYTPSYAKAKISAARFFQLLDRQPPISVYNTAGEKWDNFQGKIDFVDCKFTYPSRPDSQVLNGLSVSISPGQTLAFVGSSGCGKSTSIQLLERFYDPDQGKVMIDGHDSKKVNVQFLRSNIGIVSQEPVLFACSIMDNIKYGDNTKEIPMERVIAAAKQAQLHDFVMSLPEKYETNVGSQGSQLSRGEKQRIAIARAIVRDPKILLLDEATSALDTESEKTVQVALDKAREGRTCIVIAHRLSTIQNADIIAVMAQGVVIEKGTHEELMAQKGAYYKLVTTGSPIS

SMILES: CN(CCOc1ccc(CC2SC(=O)NC2=O)cc1)c1ccccn1 (stereo not drawn) [ROSIGLITAZONE]
IC50 [1]: 2.8 µM
IC50 [2]: > 133 µM
IC50 [3]: 21 µM
AUC at 24 h [4]: 8.02 µM·h
concentration at 24 h [5]: 334 nM
Ratio [6]: 0.119
Ratio [7]: 0.016

SMILES: CCc1nn(CCCN2CCN(c3cccc(Cl)c3)CC2)c(=O)n1CCOc1ccccc1 [NEFAZODONE]
IC50 [8]: > 133 µM
IC50 [2]: > 133 µM
IC50 [3]: 71 µM
AUC at 24 h [9]: 14.5 µM·h
concentration at 24 h [10]: 604 nM
Ratio [11]: 0.099
Ratio [12]: 0.009

SMILES: Cc1ccc(NC(=O)c2ccc(CN3CCN(C)CC3)cc2)cc1Nc1nccc(-c2cccnc2)n1 [IMATINIB]
IC50 [8]: > 133 µM
IC50 [2]: > 133 µM
IC50 [3]: > 133 µM
AUC at 24 h [20]: 106 µM·h
concentration at 24 h [21]: 4410 nM

Further lines, with some results ahead:

IC50 [8]: > 133 µM
IC50 [2]: > 133 µM
IC50 [3]: 2.7 µM
AUC at 24 h [13]: 8.71 µM·h
concentration at 24 h [14]: 363 nM
Ratio [16]: 0.134
SMILES: O=C(Nc1cccc2c(=O)cc(-c3nnn[nH]3)oc12)c1ccc(OCCCCc2ccccc2)cc1
IC50 [1]: 2.97 µM
Ratio [15]: 0.122

IC50 [8]: > 133 µM
IC50 [2]: > 133 µM
IC50 [3]: > 133 µM
AUC at 24 h [17]: 35.8 µM·h
concentration at 24 h [18]: 1490 nM
SMILES: CC(=O)O[C@]1(C(C)=O)CC[C@H]2[C@@H]3C=C(C)C4=CC(=O)CC[C@]4(C)[C@H]3CC[C@@]21C [MEGESTROL ACETATE]
IC50 [1]: 17.8 µM
Ratio [19]: 0.084

IC50 [8]: 53 µM
IC50 [2]: 69 µM
IC50 [3]: 41.9 µM
AUC at 24 h [22]: 89.4 µM·h
concentration at 24 h [23]: 3730 nM
Ratio [25]: 0.07
Ratio [26]: 0.054
Ratio [27]: 0.089
SMILES: CO[C@H]1/C=C/O[C@@]2(C)Oc3c(C)c(O)c4c(O)c(c(/C=N/N5CCN(C)CC5)c(O)c4c3C2=O)NC(=O)/C(C)=C\C=C\[C@H](C)[C@H](O)[C@@H](C)[C@@H](O)[C@@H](C)[C@H](OC(C)=O)[C@@H]1C [RIFAMPIN]
Ratio [24]: 0.147
